Data from patent US20110015191A1, “ORGANIC COMPOUNDS” (SANDOZ AG, priority 2007, published 2011).
In brackets after ≈: the same amount, converted by molar mass.

Legend:
[1] = heated to 230° C. under a nitrogen atmosphere; cited from earlier work
[2] = cited from earlier work
[3] = Conversion of the methanol solvate on drying; type: physicochemical
From the text: In another embodiment the invention relates to a novel methanol solvate of Aprepitant. The methanol solvate is useful for the purification of Aprepitant.

Row | SMILES | conversion of polymorphic form on heating [1] | solubility in a methanol/water mixture (2:1) [2] | conversion of solid form on drying [3]
1 | C[C@@H](O[C@H]1OCCN(Cc2nc(=O)[nH][nH]2)[C@H]1c1ccc(F)cc1)c1cc(C(F)(F)F)cc(C(F)(F)F)c1 [Form II of Aprepitant, 2-(R)-(1-(R)-(3,5)-bis(trifluoromethyl)-phenyl)ethoxy)-3-(S)-(4-fluoro)phenyl-4-(3-(5-oxo-1H,4H-1,2,4-triazolo)methylmorpholine] | converts to form I | about 1.3±0.2 mg/ml | 
2 | C[C@@H](O[C@H]1OCCN(Cc2nc(=O)[nH][nH]2)[C@H]1c1ccc(F)cc1)c1cc(C(F)(F)F)cc(C(F)(F)F)c1 [form I, 2-(R)-(1-(R)-(3,5)-bis(trifluoromethyl)-phenyl)ethoxy)-3-(S)-(4-fluoro)phenyl-4-(3-(5-oxo-1H,4H-1,2,4-triazolo)methylmorpholine] |  | 900 ± 100 µg/mL (≈ 1680 µM) | 
3 | CO.C[C@@H](O[C@H]1OCCN(Cc2nc(=O)[nH][nH]2)[C@H]1c1ccc(F)cc1)c1cc(C(F)(F)F)cc(C(F)(F)F)c1 [methanol solvate, Methanol solvate of 2-(R)-(1-(R)-(3,5)-bis(trifluoromethyl)-phenyl)ethoxy)-3-(S)-(4-fluoro)phenyl-4-(3-(5-oxo-1H,4H-1,2,4-triazolo)methylmorpholine] |  |  | converts to form I of Aprepitant on drying
